Reference: PMC2799665

Experiment: End-to-end contact formation (no covalent bond): MR121 oxazine dye fluorescence quenched by C-terminal Trp through van der Waals contact/stacking; ns-resolved FCS; single-exponential fit over 6-300 ns with two-state model
Conditions: the molecule shown is the open-chain precursor; water (aqueous solution); 20.0 °C

Point of comparison: `CCN1CCCc2cc3c(cc21)Oc1cc2c(cc1=N3)CCC[N+]=2CCCC(=O)NCC(=O)N[C@@H](CO)C(=O)NCC(=O)N[C@@H](CO)C(=O)N[C@@H](Cc1c[nH]c2ccccc12)C(=O)[O-]` [MR121-Gly-Ser-Gly-Ser-Trp-O-], end-to-end contact formation time constant (ns (closing time constant tau+ = 1/k+)) 14.6. Against it:
- CCN1CCCc2cc3c(cc21)Oc1cc2c(cc1=N3)CCC[N+]=2CCCC(=O)NCC(=O)N[C@@H](CO)C(=O)NCC(=O)N[C@@H](CO)C(=O)NCC(=O)N[C@@H](CO)C(=O)NCC(=O)N[C@@H](CO)C(=O)NCC(=O)N[C@@H](CO)C(=O)NCC(=O)N[C@@H](CO)C(=O)NCC(=O)N[C@@H](CO)C(=O)N[C@@H](Cc1c[nH]c2ccccc12)C(=O)[O-] — higher, 32.7
- CCN1CCCc2cc3c(cc21)Oc1cc2c(cc1=N3)CCC[N+]=2CCCC(=O)NCC(=O)N[C@@H](CO)C(=O)NCC(=O)N[C@@H](CO)C(=O)NCC(=O)N[C@@H](CO)C(=O)NCC(=O)N[C@@H](CO)C(=O)NCC(=O)N[C@@H](CO)C(=O)NCC(=O)N[C@@H](CO)C(=O)NCC(=O)N[C@@H](CO)C(=O)NCC(=O)N[C@@H](CO)C(=O)NCC(=O)N[C@@H](CO)C(=O)N[C@@H](Cc1c[nH]c2ccccc12)C(=O)[O-] — higher, 48.9
- CCN1CCCc2cc3c(cc21)Oc1cc2c(cc1=N3)CCC[N+]=2CCCC(=O)NCC(=O)N[C@@H](CO)C(=O)NCC(=O)N[C@@H](CO)C(=O)NCC(=O)N[C@@H](CO)C(=O)N[C@@H](Cc1c[nH]c2ccccc12)C(=O)[O-] [MR121-Gly-Ser-Gly-Ser-Gly-Ser-Trp-O-] — higher, 17.6
- CCN1CCCc2cc3c(cc21)Oc1cc2c(cc1=N3)CCC[N+]=2CCCC(=O)NCC(=O)N[C@@H](CO)C(=O)NCC(=O)N[C@@H](CO)C(=O)NCC(=O)N[C@@H](CO)C(=O)NCC(=O)N[C@@H](CO)C(=O)NCC(=O)N[C@@H](CO)C(=O)NCC(=O)N[C@@H](CO)C(=O)NCC(=O)N[C@@H](CO)C(=O)NCC(=O)N[C@@H](CO)C(=O)NCC(=O)N[C@@H](CO)C(=O)NCC(=O)N[C@@H](CO)C(=O)NCC(=O)N[C@@H](CO)C(=O)NCC(=O)N[C@@H](CO)C(=O)N[C@@H](Cc1c[nH]c2ccccc12)C(=O)[O-] — higher, 68.4
- CCN1CCCc2cc3c(cc21)Oc1cc2c(cc1=N3)CCC[N+]=2CCCC(=O)NCC(=O)N[C@@H](CO)C(=O)NCC(=O)N[C@@H](CO)C(=O)NCC(=O)N[C@@H](CO)C(=O)NCC(=O)N[C@@H](CO)C(=O)NCC(=O)N[C@@H](CO)C(=O)NCC(=O)N[C@@H](CO)C(=O)NCC(=O)N[C@@H](CO)C(=O)NCC(=O)N[C@@H](CO)C(=O)NCC(=O)N[C@@H](CO)C(=O)NCC(=O)N[C@@H](CO)C(=O)NCC(=O)N[C@@H](CO)C(=O)NCC(=O)N[C@@H](CO)C(=O)NCC(=O)N[C@@H](CO)C(=O)NCC(=O)N[C@@H](CO)C(=O)NCC(=O)N[C@@H](CO)C(=O)N[C@@H](Cc1c[nH]c2ccccc12)C(=O)[O-] — higher, 103
- CCN1CCCc2cc3c(cc21)Oc1cc2c(cc1=N3)CCC[N+]=2CCCC(=O)NCC(=O)N[C@@H](CO)C(=O)NCC(=O)N[C@@H](CO)C(=O)NCC(=O)N[C@@H](CO)C(=O)NCC(=O)N[C@@H](CO)C(=O)NCC(=O)N[C@@H](CO)C(=O)N[C@@H](Cc1c[nH]c2ccccc12)C(=O)[O-] [MR121-Gly-Ser-Gly-Ser-Gly-Ser-Gly-Ser-Gly-Ser-Trp-O-] — higher, 20.5
